The values below come from patent US20250099580A1, “TREATMENT OF GASTRIC CANCER AND/OR GASTROESOPHAGEAL JUNCTION CANCER” (AstraZeneca AB, priority 2023, published 2025).

The subject of series [1] is resectable gastric and gastroesophageal junction cancer (GC/GEJC). The series is described as follows: Phase III study, interim analysis: pathological response (pCR, pnCR, downstaging) by pathology review after neoadjuvant therapy. In kind it is in vivo, human. The source says:
As used herein, the terms “combined pathological complete response/near-complete pathological response” or “pnCR” refer to the proportion of patients who only have single cells or rare small groups of cancer cells present in the resected specimens as determined by pathology review. […] The Ryan Scoring system is based on the ratio of residual cancer cells to the amount of fibrosis, and ranges from 1 (complete or near-complete response) to 3 (poor or not response to neoadjuvant therapy). As used herein, the terms “pathological complete response” or “pathological CR” or “pCR” refer to the proportion of patients who have no residual viable tumor in the resected specimens and as determined by pathology review. As used herein, the terms “event-free survival” or “EFS” refer the time from the date of randomization until the date of one of the following events, whichever occurs first: (1) first documented progression that precludes surgery or requires non-protocol therapy; (2) first evidence of documented recurrence of disease post-surgery in patients who had margin-negative surgery (R0); (3) first evidence of documented progression of disease post-surgery in patients with margin-positive surgery (R1/R2); or (4) death due to any cause. EFS is determined according to RECIST 1.1 per BICR assessment and/or locally by pathology testing.
(§1) A randomized, double-blind, placebo-controlled, multicenter, global Phase III study is conducted to assess the efficacy and safety of neoadjuvant-adjuvant durvalumab in combination with FLOT chemotherapy followed by adjuvant durvalumab monotherapy in patients with resectable GC/GEJC (i.e., radical-surgery eligible; >T2 N0-3 M0 or T0-4 N1-3 M0, per AJCC 8th edition). Patients were randomized in a 1:1 ratio to each of the following treatment arms (see FIGS. 1A and 1B): • Treatment Arm A: durvalumab 1500 mg on Day 1+FLOT on Days 1 and 15 of Q4W, both agents being adminstered for 4 cycles (2 cycles neoadjuvant+2 cycles adjuvant) followed by durvalumab 1500 mg on Day 1 Q4W for 10 additional cycles. • Treatment Arm B: placebo on Day 1+FLOT on Days 1 and 15 of Q4W, both agents being adminstered for 4 cycles (2 cycles neoadjuvant+2 cycles adjuvant) followed by placebo on Day 1 Q4W for 10 additional cycles.
Patients were stratified according to geographic region (Asia versus non-Asia), clinical lymph node status (positive versus negative), and PD-L1 expression status (TIP/TAP≥1% versus TIP/TAP<1%). Patients provided a tumor tissue sample at screening (newly acquired or archived sample <3 months old) to determine PD-L1 status using the Tumor and/or Immune Cell Positivity (TIP) scoring method (defined as proportion of tumor area occupied by tumor cells with membrane and immune cells with cytoplasmic/membrane PD-L1 staining at any intensity) by the Ventana SP263 PD-L1 immunohistochemistry (IHC) assay for stratification in which: TIP/TAP≥1% PD-L1 is considered as high, and TIP/TAP<1% PD-L1 is considered low.
Neoadjuvant therapy begins following completion of the screening period/randomization, and patients undergo resection surgery about 4 to about 8 weeks after the last dose of neoadjuvant therapy (surgery >8 weeks after the last dose of neoadjuvant therapy may be permitted). Adjuvant therapy begins about 4 weeks to about 12 weeks post-surgery (based on the patient's recovery period). In this Phase III study, the administration of durvalumab and a FLOT chemotherapy prior to surgery, followed by further administration of durvalumab and a FLOT chemotherapy after surgery, was investigated to determine if this therapy regimen can improve activity and therefore long-term clinical outcomes for patients with resectable GC and/or resectable GEJC.
Eligible patients received 1500 mg durvalumab or placebo on Day 1 in combination with FLOT chemotherapy on Days 1 and 15 for 2 cycles Q4W as neoadjuvant therapy. […]

Series [2] shares this test system. The series is described as follows: Phase III study, interim analysis: surgery rate and R0 resection rate. The series is classed as in vivo, human. On the procedure:
A randomized, double-blind, placebo-controlled, multicenter, global Phase III study is conducted to assess the efficacy and safety of neoadjuvant-adjuvant durvalumab in combination with FLOT chemotherapy followed by adjuvant durvalumab monotherapy in patients with resectable GC/GEJC (i.e., radical-surgery eligible; >T2 N0-3 M0 or T0-4 N1-3 M0, per AJCC 8th edition). Patients were randomized in a 1:1 ratio to each of the following treatment arms (see FIGS. 1A and 1B): • Treatment Arm A: durvalumab 1500 mg on Day 1+FLOT on Days 1 and 15 of Q4W, both agents being adminstered for 4 cycles (2 cycles neoadjuvant+2 cycles adjuvant) followed by durvalumab 1500 mg on Day 1 Q4W for 10 additional cycles. • Treatment Arm B: placebo on Day 1+FLOT on Days 1 and 15 of Q4W, both agents being adminstered for 4 cycles (2 cycles neoadjuvant+2 cycles adjuvant) followed by placebo on Day 1 Q4W for 10 additional cycles. Surgical eligibility was assessed after neoadjuvant treatment and within 28 days prior to surgery. Surgery performed was gastrectomy or gastroesophagectomy with at least D1 lymphadenectomy (D2 lymphadenectomy recommended), as determined by the attending surgeon based on the intraoperative findings. Surgery was no earlier than 4 weeks but within 8 weeks after the last dose of neoadjuvant therapy. Patients must have recovered from all acute, reversible toxic effects from FLOT chemotherapy (excluding alopecia) and durvalumab (or placebo) that could potentially adversely impact the surgical procedure. Radical gastrectomy or gastroesophagectomy was performed for patients who met the surgery eligibility criteria by a board certified surgeon no earlier than 28 days (4 weeks) but within 56 days (8 weeks) after the last dose of neoadjuvant therapy. (Surgery >8 weeks after the last dose of neoadjuvant therapy may be permitted in consultation with the Sponsor). The recommendations of ESMO and NCCN for the resectability of GC/GEJC was followed. The surgery was be performed by a board certified gastric surgeon, who should perform gastric surgery as a prominent part of his/her practice. Surgery rate is analyzed using the same methodology as described for the pCR rate. R0 resection (margin-negative resection) rate is analyzed using the same methodology as described for the pCR rate. Surgery status is determined by a patient receiving gastrectomy or gastroesophagectomy (yes/no). Surgery rate is defined as the proportion of patients who undergo gastrectomy or gastroesophagectomy. R0 resection is determined by pathology review. R0 resection rate is defined as the proportion of patients who have a confirmed complete resection (i.e., received margin-negative surgery [R]) as assessed by pathology review. Interim analysis was conducted after all randomised patients underwent or were precluded from surgery. Superiority of pCR rate (α=0.1% [2-sided]) by central review was assessed. Surgical and safety outcomes were also assessed.

Series [3] in a line: Phase III study, interim analysis: adverse events (safety analysis set). In kind it is in vivo. On the procedure:
as §1
An adverse event (AE) can therefore be any unfavorable and unintended sign (e.g., an abnormal laboratory finding), symptom (for example nausea, chest pain), or disease temporally associated with the use of a medicinal product, whether or not considered related to the medicinal product. The term AE is used to include both serious and non-serious AEs and can include a deterioration of a pre-existing medical occurrence. An AE may occur at any time, including run-in or washout periods, even if no study intervention has been administered.
Definitions of serious adverse event: A serious adverse event is an AE occurring during any study phase (i.e., run-in, treatment, washout, follow-up), that fulfils one or more of the following criteria: results in death, is immediately life-threatening, requires in-patient hospitalization or prolongation of existing hospitalization, results in persistent or significant disability or incapacity, is a congenital abnormality or birth defect, or is an important medical event that may jeopardize the patient or may require medical treatment to prevent one of the outcomes listed above.
Adverse events are coded using the most recent version of the Medical Dictionary for Regulatory Activities (MedDRA). AEs are presented for each treatment group by SOC and/or PT, covering number and percentage of subjects reporting at least one event and number of events where appropriate. […]
Safety and tolerability are assessed in terms of AEs (including SAEs), deaths, laboratory data, vital signs, ECGs, and exposure. […]
Interim analysis was conducted after all randomised patients underwent or were precluded from surgery. Superiority of pCR rate (α=0.1% [2-sided]) by central review was assessed. Surgical and safety outcomes were also assessed.

A further series has as its target PD-L1 (Homo sapiens, UniProt Q9NZQ7). Conditions: in vitro; cited from earlier work.
Series [4] deals with tumor growth in a xenograft model. The conditions noted are these: T-cell dependent mechanism; cited from earlier work.
[5] abbreviates: Central Review (BICR), n = 474 per arm.
Where [6] appears, read: D + FLOT versus P + FLOT, p < 0.00001.
Where [7] appears, read: Investigator Assessment, n = 474 per arm.
Where [8] appears, read: central assessment, n = 474 per arm.

Chain of PD-L1 (Q9NZQ7 19-290): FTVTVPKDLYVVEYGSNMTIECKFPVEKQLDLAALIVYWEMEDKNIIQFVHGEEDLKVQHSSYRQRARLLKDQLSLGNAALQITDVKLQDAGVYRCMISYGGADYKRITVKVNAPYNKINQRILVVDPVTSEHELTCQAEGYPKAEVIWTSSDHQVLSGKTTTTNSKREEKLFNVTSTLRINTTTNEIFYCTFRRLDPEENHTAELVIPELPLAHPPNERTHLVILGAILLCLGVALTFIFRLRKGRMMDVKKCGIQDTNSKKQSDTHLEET

In the case of “D + FLOT: durvalumab 1500 mg Day 1 Q4W plus FLOT (5-FU + leucovorin + oxaliplatin + docetaxel) Days 1 and 15, neoadjuvant-adjuvant, then durvalumab monotherapy”, in series [1], the “Combined pCR/near-complete pathological response (pnCR) rate” value was 27% and the “increase in major response versus Placebo+FLOT chemotherapy alone” value was 12.4%. Further, the “pCR Difference in response rate (%)” value in series [1] (Central Review (BICR), Durva + FLOT − Placebo + FLOT) stood at 12.0%. For the same substance, in series [1] (setting [5]), the “pCR N Responses” value came to 91 and the “pCR Response rate %” value came out at 19.2%. For the same substance, in series [1] (Central Review (BICR), stratified Cochran-Mantel-Haenszel test, 2-sided p <0.00001), the “pCR Odds ratio” value amounted to 3.08. In series [1] (setting [6]), the “pCR, OR (95% CI)” value is recorded as 3.08 (2.03-4.67); p < 0.00001 and the “pCR/pnCR, OR (95% CI)” value is 2.19 (1.58-3.04); p < 0.00001. Also, in series [1] (Durva + FLOT − Placebo + FLOT), the “Major pathological response, Difference in response rate (%)” value turned out to be 12.4%. Moreover, the “pCR (BICR) by subgroups” value in series [1] (FIG. 2, odds ratio>1 favours durvalumab) was “consistent across evaluable subgroups”. In addition, the “major pathological response (complete or near-complete response BICR) by subgroups” value in series [1] (FIG. 3, odds ratio>1 favours durvalumab) is listed as “consistent across evaluable subgroups”. Further, the “pCR Difference in response rate (%)” value in series [1] (Investigator Assessment, Durva + FLOT − Placebo + FLOT) was found to be 13.3%. In series [1] (setting [7]), the “pCR N Responses” value amounted to 103 and the “pCR Response rate %” value is recorded as 21.7%. In series [1] (Investigator Assessment, stratified Cochran-Mantel-Haenszel test, 2-sided p <0.00001), the “pCR Odds ratio” value was determined as 3.03. In series [1] (by central review), the “Downstaging, pN0” value was 47% and the “Downstaging, pT0” value was determined as 21%. In series [1] (setting [8]), the “Major pathological response (complete or near-complete) N Responses” value is on record as 127 and the “Major pathological response rate %” value stood at 26.8%. In series [1] (central review, interim analysis), the pCR rate amounted to 19%. In addition, the “pCR/pnCR, %” value in series [1] (n = 474 per arm) is on record as 26.8%. In series [1] (n = 474 per arm, interim analysis), the “pCR, %” value was found to be 19.2%. Moreover, the “Major pathological response, Odds ratio” value in series [1] (stratified Cochran-Mantel-Haenszel test, 2-sided p <0.00001) amounted to 2.19. In addition, the “increase in pCR rate from addition of durvalumab to FLOT” value in series [1] (versus Placebo) is on record as 12%. The “pCR odds ratio [OR]” value in series [1] (versus Placebo, p<0.00001) turned out to be 3.08. Besides, the Surgery rate in series [2] came out at 87%. Moreover, in series [2] (D + FLOT versus P + FLOT), the “Surgery performed, OR (95% CI)” value was 1.23 (0.85-1.76). Further, in series [2] (D + FLOT versus P + FLOT, in pts with surgery), the “R0 resection, OR (95% CI)” value is given as 1.00 (0.68-1.48). The R0 resection rate in series [2] (in patients who underwent surgery) turned out to be 86%. In series [2] (in pts with surgery: D + FLOT n = 430, P + FLOT n = 422), the “R0 resection, %” value amounted to 85.8%. Also, the “Surgery performed, %” value in series [2] (n = 474 per arm) is 86.7%. Moreover, in series [3] (safety analysis set), the “AE Grade 3/4, (%)” value is given as “(68.6) %”; the “Grade 3/4 TRAE, (%)” value is recorded as “(57.9) %”; the “TRAE (treatment-related AE), (%)” value was “(95.2) %”. Further, in series [3] (safety analysis set: D + FLOT n = 475, P + FLOT n = 469), the “AE, (%)” value was “(98.9) %”.
With “Durvalumab: antibody that selectively binds PD-L1 and blocks the binding of PD-L1 to the PD-1 and CD80 receptors”, the “effect on PD-L1-mediated suppression of human T-cell activation” value in the series with PD-L1 is given as “relieve PD-L1-mediated suppression of human T-cell activation in vitro”. Moreover, in series [4], the tumor growth result is reported as “inhibits tumor growth”.
